In patent US6121269A, “Reduction of hair growth” (priority 1999, dated 2000):
Read-outs that look alike come from different tables or passages of the source.

Key:
human hair follicles = assay: Human Hair Follicle Growth Assay; assay type: cell-based
Procedure: Human hair follicles in growth phase (anagen) were isolated from face-lift tissue under a dissecting scope using a scalpel and watchmakers forceps. The skin was sliced into thin strips exposing 2-3 rows of follicles that could readily be dissected. […] Hair follicles were videorecorded in the 24-well plates under the dissecting scope under a power of 20×. Hair follicle lengths were assessed using an image analysis software system (Computer Eyes and NIH Image). Typically, initial recordings were made on day 0 (day follicles were placed in culture), and on days 1, 4, and 7.
The effect of five protein-tyrosine kinase inhibitors on human hair follicle growth was determined by exposing the isolated follicles to the enzyme inhibitors. The hair follicle lengths were determined before and after the inhibitor treatment.
In another experiment isolated hair follicles were exposed to either 1 mM or 0.01 mM concentration of the protein-tyrosine kinase inhibitor erbstatin, and the hair growth rate was compared to control. Measurements were made at days 0, 1 and 4.

protein-tyrosine kinase = assay: Protein-Tyrosine Kinase Assay (human skin/hair follicle extract, Calbiochem kit); assay type: biochemical; settings: inhibitor 1 mM, human skin supernatant fraction
Procedure: Protein-tyrosine kinase activity was measured in human skin samples rich in hair follicles using a commercially available assay kit (Calbiochem). Human skin obtained from a local plastic surgeon as a by-product of face-lift procedures was homogenized in four volumes of the extraction buffer containing 20 mM Tris-HCL, pH7.4, 50 mM NaCl, 1 mM EDTA, 1 mM EGTA, 5 mM mercaptoethanol. The samples were centrifuged for 10 min at 16,000×g to remove the membrane/organelle fractions. The supernatant fraction was used for the tyrosine kinase assay. Adding 25 ml of the 20× concentrated solution to 475 ml of deionized water and mixing made a working solution of plate wash buffer. The kinase buffer was prepared by adding 50 ul/ml of the 2 mM ATP stock solution to 1× sample buffer without 2-mercatoethanol. (90 ul of the kinase buffer/well).For the enzyme assay, 10 ul of each sample was added to a well. 10 ul of Abl standard, as positive controls, were added to a well. The kinase reaction was started by adding 90 ul of 1× kinase buffer/well and incubated at room temp for 30 minutes. The contents of each well was washed six times with 1× wash buffer, 100 ul of PY20 antibody diluted 1:200 with 1× Sample/kinase reaction buffer (without ATP) (15 ul to 3 ml) were added and the combination incubated for 30 minutes. The test solutions were washed with wash buffer, and 100 ul of substrate solution were added to each and incubated in the dark for 6 minutes. 100 ul of stop solution were added, and the UV absorbance read at 450 nm. The increase in UV absorbance at 450 nm provided a measure of the enzyme activity.
The ability of protein-tyrosine kinase inhibitors to inhibit the skin/hair follicle enzyme activity was determined by measuring protein-tyrosine kinase activity in the presence and absence of the inhibitor. For enzyme inhibition studies, the inhibitor was added to the reaction mixture at a concentration of 1 mM following addition of the enzyme sample.

[1] = isolated human follicles, inhibitor 500 μM
[2] = isolated human follicles, inhibitor 500 μM, vs control
[3] = isolated human follicles, inhibitor 50 μM
[4] = isolated human follicles, inhibitor 250 μM

O=CN/C=C/c1cc(O)ccc1O [Erbstatin, erbstatin]
Posttreatment (Day-1) Growth (human hair follicles; 0.01 mM): 0.1 mm | Posttreatment (Day-1) Length (human hair follicles; 0.01 mM): 3.1 ± .20 mm | Posttreatment (Day-4) Growth (human hair follicles; 0.01 mM): 0.8 mm | Posttreatment (Day-4) Length (human hair follicles; 0.01 mM): 3.8 ± .29 mm | Posttreatment (Day-1) Growth (human hair follicles; 1 mM): 0.0 mm | Posttreatment (Day-1) Length (human hair follicles; 1 mM): 3.0 ± .17 mm | Posttreatment (Day-4) Growth (human hair follicles; 1 mM): 0.3 mm | Posttreatment (Day-4) Length (human hair follicles; 1 mM): 3.3 ± .15 mm | inhibition at 10 µM (human hair follicles; Homo sapiens, 24 h, 0.01 mM, day 1, vs control, read-out: Posttreatment (Day-1) Inhibition): 83% | inhibition at 1000 µM (human hair follicles; Homo sapiens, 24 h, 1 mM, day 1, vs control, read-out: Posttreatment (Day-1) Inhibition): 100% | inhibition at 10 µM (human hair follicles; Homo sapiens, 96 h, 0.01 mM, day 4, vs control, read-out: Posttreatment (Day-4) Inhibition): 11% | inhibition at 1000 µM (human hair follicles; Homo sapiens, 96 h, 1 mM, day 4, vs control, read-out: Posttreatment (Day-4) Inhibition): 67% | Hair Growth (human hair follicles; [1]): 0.3 mm | Post-treatment hair follicle length (human hair follicles; [1]): 3.9 ± .10 mm | inhibition at 500 µM (human hair follicles; [2]): 73%

CC(=O)OCOC(c1ccc2ccccc2c1)P(=O)(OCOC(C)=O)OCOC(C)=O (stereo not drawn) [HNMPA(AM)3, hydroxy-2-naphthalenylmethylphosphonic acid tris acetoxymethyl ester]
% Inhibition (protein-tyrosine kinase activity) (protein-tyrosine kinase): 66%

CO[C@H]1[C@@H](OC)C[C@H](C)[C@@H](OC)C2=CC(=O)C=C(NC(=O)/C(C)=C/C=C\[C@H](OC)[C@@H](OC(N)=O)/C(C)=C/[C@@H]1C)C2=O [Herbimycin, herbimycin A]
% Inhibition (protein-tyrosine kinase activity) (protein-tyrosine kinase): 37%

O=C(O)c1cc(N(Cc2ccccc2O)Cc2cc(O)ccc2O)ccc1O [Lavendustin A, lavendustin A]
Hair Growth (human hair follicles; [3]): 0 mm | Post-treatment hair follicle length (human hair follicles; [3]): 3.5 ± .12 mm | inhibition at 50 µM (human hair follicles; isolated human follicles, inhibitor 50 μM, vs control): 100% | % Inhibition (protein-tyrosine kinase activity) (protein-tyrosine kinase): 59%

N#CC(=Cc1ccc(O)c(O)c1)C(N)=S [Tryphostin A47, α-cyano-(3,4-dihydroxy)thiocinnamide]
% Inhibition (protein-tyrosine kinase activity) (protein-tyrosine kinase): 16%

N#CC(=Cc1ccc(O)cc1)C(N)=C(C#N)C#N [Tryphostin A48, 2-amino-4-(4'-hydroxyphenyl)-1,1,3-tricyanobuta-1,3-diene]
Hair Growth (human hair follicles; [1]): 0.1 mm | Post-treatment hair follicle length (human hair follicles; [1]): 3.3 ± .16 mm | inhibition at 500 µM (human hair follicles; [2]): 91%

COc1cc2ncnc(Nc3cccc(Cl)c3)c2cc1OC [Tryphostin AG 1478, 4-(3-Chloroanilino)-6,7-dimethoxyquinazoline]
inhibition at 250 µM (human hair follicles; Homo sapiens, read-out: % Inhibition (hair growth)): 40% | Hair Growth (human hair follicles; [4]): 0.6 mm | Post-treatment hair follicle length (human hair follicles; [4]): 3.8 ± .19 mm

COC(=O)/C=C/c1ccc(O)c(O)c1 [methyl caffeate]
Hair Growth (human hair follicles; [1]): 0.6 mm | Post-treatment hair follicle length (human hair follicles; [1]): 4.1 ± .17 mm | inhibition at 500 µM (human hair follicles; [2]): 40% | % Inhibition (protein-tyrosine kinase activity) (protein-tyrosine kinase): 100%

N-acetyl-Asp-Tyr-(2-malonyl)-Val-Pro-Met-Leu-NH2
% Inhibition (protein-tyrosine kinase activity) (protein-tyrosine kinase): 83%
